According to patent US10793535B2, “Heterocyclic glutaminase inhibitors” (Calithera Biosciences, Inc., priority 2012, dated 2020):
Read-outs that look alike come from different tables or passages of the source. Blank lines part the entries; values can stand above or below the compound they belong to.

Tests used:
P493-6 (myc "on") cells = assay: Cell proliferation assay; assay type: cell-based; settings: read-out: Cell prolif P493 72 h IC50
Experimental: P493-6 (myc “on”) cells were maintained in growth media (RPMI-1640, 10% FBS, 2 mM glutamine, 100 units/ml Penicillin and 100 μg/ml streptomycin) at 37° C. with 5% CO2. For compound assay, P493-6 cells were plated in 96-well V-bottom plates on the day of compound addition in 50 μl of growth media at a cell density of 200,000 cells/ml (10,000 cells/well). Compounds were serially diluted in 100% DMSO at 200-times the final concentration. Compounds were diluted 100-fold into growth media and then 50 μl of this mixture was added to cell plates making the final concentration of DMSO 0.5%. Cells were incubated with compound for 72 hrs at 37° C. with 5% CO2 and analyzed for antiproliferative effects either by Cell Titer Glo (Promega) or FACS analysis using the Viacount (Millipore) kit on the Guava instrument.

Caco-2 cell monolayers = assay: Caco-2 permeability assay; assay type: in vitro ADME, human
From the text: Caco-2 cells are commonly used in a confluent monolayer on a cell culture insert filter. When cultured in this format and under specific conditions, the cells become differentiated and polarized such that their phenotype, morphologically and functionally resembles the enterocytes lining the small intestine. The cell monolayer provides a physical and biochemical barrier to the passage of small molecules, and is widely used across the pharmaceutical industry as an in vitro model of the human small intestinal mucosa to predict the absorption of orally administered drugs (Hidalgo et al., Gastroenterology, 1989; Artursson, J. Pharm. Sci., 1990). The correlation between the in vitro apparent permeability (P ? app) across Caco-2 monolayers and the in vivo absorption is well established (Artursson et al., Biochem. Biophys. Res. Comm., 1991).
The present assay was used to determine the bidirectional permeability of the compounds of the invention through Caco-2 cell monolayers. Caco-2 cells were grown in confluent monolayers where the media of both the apical (A) and basolateral (B) sides were at pH 7.4. Compounds were dosed at 1 μM in the presence of 200 μM Lucifer Yellow, on the apical side (A→B) or the basolateral side (B→A) for assessment, in duplicate.
The absorption potential of compounds were classified as either Low (P-app<1×10^−6 cm/s) or High (P-app>1×10^−6 cm/s).

[1] = Pharmacokinetic studies in mice; assay type: in vivo; settings: female, CD-1, mouse, plasma, po
Experimental: For PK studies performed in mice, female CD-1 mice, age 5-8 weeks, were dosed orally by gavage (10 mL/kg volume) with test compounds. At pre-determined time-points (e.g. 1, 3, and 6 hrs) post-dosing, groups of three mice were sacrificed by CO2 inhalation and blood collected via cardiac puncture. Blood samples were placed into K2 EDTA coated tubes and kept on ice. Samples were centrifuged at 2000×g for 10 minutes at 4° C. and plasma isolated. Plasma was stored at ˜70° C. until bioanalytical analysis.
(§1) The plasma samples were analyzed using Liquid chromatography tandem mass spectrometry (LC/MS/MS) methods. Frozen plasma samples were thawed on ice or room temperature. Aliquotes of study plasma samples and calibration samples prepared in the same matrix as the study samples were quenched in an organic solvent (methanol, acetonitrole or DMF) containing an internal standard. The mixtures were then centrifuged and filtered and the filtrates were injected to an LC/MS/MS system to determine concentrations of test compounds.

[2] = Pharmacokinetic studies in rats; assay type: in vivo; settings: female, Sprague-Dawley, plasma, Rat
Experimental: For PK studies performed in rats, groups of three female Sprague-Dawley Rats, age 7-10 weeks, with jugular vein cannulae were dosed orally by gavage (5-10 mL/kg) with test compounds. Serial blood samples were collected via the jugular vein cannulae at multiple time-points pre and post-dose. Blood samples were placed into K2 EDTA coated tubes on kept on ice. Samples were centrifuged at 2500×g for 10 minutes at 4° C. and plasma isolated. Plasma was stored at ˜70° C. until bioanalytical analysis.
as §1

[3] = test system: multiple myeloma cells (MM1S cells, RPMI-8226 cells); assay: Treatment of multiple myeloma cells with a combination of drugs; assay type: cell-based; settings: 72 hours, Cell Titer Glo, combination indices (Calcusyn)
Experimental: At the end of the incubation, cell viability was measured using Cell Titer Glo as per manufacturer's protocol (Promega, Madison, Wis.). Measured values for compound-treated cells were normalized to DMSO-treated cells and data is reported as a cell survival ratio with a value of 1 (one) corresponding to maximum cell survival and a value of 0 (zero) corresponding to no cell survival. Cell survival ratios for all compound treatments are represented as bar graphs. Combination indices were calculated using the Calcusyn program (biosoft.com) and reported for individual mixtures of compound 670 and pomalidomide [POM] (panels A &C) and individual mixtures of compound 670 and dexamethasone [DEX] (panels B & D). Compound mixtures that produced a synergistic anti-tumor activity are highlighted.

[4] = test system: H2122 lung adenocarcinoma xenograft; assay: Lung adenocarcinoma xenograft efficacy study; assay type: in vivo, mouse; settings: 200 mg/kg orally BID for 23 days
Experimental: Female scid/beige mice (n=20) age 6-8 weeks were implanted subcutaneously with 1×10^7 H2122 lung adenocarcinoma cells per mouse suspended in PBS. […] For both groups, dosing was initiated 24 hours post-implant and continued orally BID for 23 days. Tumors were measured with calipers three times per week and tumor volume calculated using the formula tumor volume (mm^3)=(a×b^2/2) where ‘b’ is the smallest diameter and ‘a’ is the largest perpendicular diameter. **P-value <0.01 (Two-sided T-test).

[5] = test system: RPMI-8226 multiple myeloma xenograft; assay: Multiple myeloma xenograft study; assay type: in vivo, mouse; settings: RPMI-8226 xenograft, 200 mg/kg orally BID for 28 days
Experimental: Female CB.17 SCID mice (n=20) age 8-12 weeks were implanted subcutaneously with 1×10^7 RPMI-8226 myeloma cells per mouse mixed 1:1 with Matrigel. […] For both groups, dosing was initiated when tumors reached a volume of 100-150 mm^3 and continued orally BID for 28 days. Tumors were measured with calipers two times per week and tumor volume calculated using the formula tumor volume (mm^3)=(a×b^2/2) where ‘b’ is the smallest diameter and ‘a’ is the largest perpendicular diameter. **P-value <0.01 (Two-sided T-test).

[6] = 50 mg/kg, 50 mg/kg oral, Eudragit L100-55 solid dispersion, Suspension
[7] = 50 mg/kg, 50 mg/kg oral, 0.5% CMC/0.1% PS80, Suspension
[8] = 50 mg/kg, 50 mg/kg oral, Capryol PGMC, Suspension
[9] = 50 mg/kg, 50 mg/kg oral, 2% NMP/98% Gelucire, Solution
[10] = 50 mg/kg oral, Eudragit L100-55 solid dispersion, Suspension
[11] = 50 mg/kg, 50 mg/kg oral, 1% NMP/99% Gelucire, Solution
[12] = 25 mg/kg oral, 20% HPBCD/10 mM Citrate pH 2.0, Solution
[13] = 80 mg/kg oral, 65% HPBCD/10 mM Citrate pH 2.6, Solution
[14] = 250 mg/kg oral, 40% HPBCD/10 mM Citrate pH 2.2, Solution
[15] = 500 mg/kg oral, 40% HPBCD/10 mM Citrate pH 2.2, Solution
[16] = 100 mg/kg, 100 mg/kg oral, 25% HPBCD/10 mM Citrate pH 2.2, Solution
[17] = 200 mg/kg, 200 mg/kg oral, 25% HPBCD/10 mM Citrate pH 2.2, Solution

- Cmax [1, 6]: 0.02 µM
- Tmax [1, 6]: 6 h
SMILES: O=C(Cc1ccccc1)Nc1ccc(CCCCc2nnc(NC(=O)Cc3ccccc3)s2)nn1 [Compound 295]
- IC50 (P493-6 (myc "on") cells; P493-6, 72 h): 39 nM
- Significant Efflux (Caco-2 cell monolayers): Yes (efflux ratios being significant when greater than or equal to 3 when the Papp (B→A) was greater than or equal to 1×10^−6 cm/s)

- Cmax [1, 7]: 0.01 µM
- Tmax [1, 7]: 1 h
- Cmax [1, 8]: 0.08 µM
- Tmax [1, 8]: 3 h
SMILES: O=C(Cc1ccccc1)Nc1ccc(CCCCc2nnc(NC(=O)C(O)c3cccc(Cl)c3)s2)nn1 (stereo not shown) [Compound 318]
- IC50 (P493-6 (myc "on") cells; P493-6, 72 h): 17 nM
- Significant Efflux (Caco-2 cell monolayers): Yes (efflux ratios being significant when greater than or equal to 3 when the Papp (B→A) was greater than or equal to 1×10^−6 cm/s)

- Cmax [1, 9]: 1.13 µM
- Tmax [1, 9]: 1 h
SMILES: O=C(Cc1cccc(OC(F)(F)F)c1)Nc1ccc(CCCCc2nnc(NC(=O)C(O)c3cccc(Cl)c3)s2)nn1 (stereo not shown) [Compound 447]
- IC50 (P493-6 (myc "on") cells; P493-6, 72 h): 16 nM
- Significant Efflux (Caco-2 cell monolayers): Yes (efflux ratios being significant when greater than or equal to 3 when the Papp (B→A) was greater than or equal to 1×10^−6 cm/s)

- Cmax [2, 10]: 1.15 µM
- Tmax [2, 10]: 2 h
- Cmax [1, 11]: 5.16 µM
- Tmax [1, 11]: 1 h
- Cmax [1, 6]: 0.93 µM
- Tmax [1, 6]: 3 h
SMILES: O=C(Cc1cccc(OC(F)(F)F)c1)Nc1ccc(CCCCc2nnc(NC(=O)Cc3ccccc3)s2)nn1 [Compound 585]
- IC50 (P493-6 (myc "on") cells; P493-6, 72 h): 70 nM
- Significant Efflux (Caco-2 cell monolayers): Yes (efflux ratios being significant when greater than or equal to 3 when the Papp (B→A) was greater than or equal to 1×10^−6 cm/s)

- Cmax [2, 12]: 4.4 µM
- Tmax [2, 12]: 1 h
- Cmax [2, 13]: 12.5 µM
- Tmax [2, 13]: 1 h
- Cmax [2, 14]: 9.9 µM
- Tmax [2, 14]: 24 h
- Cmax [2, 15]: 15.3 µM
- Tmax [2, 15]: 2 h
- Cmax [1, 16]: 5.75 µM
- Tmax [1, 16]: 1 h
- Cmax [1, 17]: 5.05 µM
- Tmax [1, 17]: 1 h
SMILES: O=C(Cc1cccc(OC(F)(F)F)c1)Nc1ccc(CCCCc2nnc(NC(=O)Cc3ccccn3)s2)nn1 [Compound 670]
- anti-tumor effect in combination with dexamethasone [3]: synergizes
- anti-tumor effect in combination with pomalidomide [3]: synergizes
- IC50 (P493-6 (myc "on") cells; 72 h): 30 nM
- tumor size [4]: reduced tumor size
- Significant Efflux (Caco-2 cell monolayers): Yes (efflux ratios being significant when greater than or equal to 3 when the Papp (B→A) was greater than or equal to 1×10^−6 cm/s)
- tumor size [5]: reduced tumor size
